Measured values published in patent US10405547B2, “Substituted cyclic amides as herbicides” (FMC Corporation, priority 2015, dated 2019).

How the values were obtained:
Format in all cases: in vivo
[1] = system: barnyardgrass (Echinochloa crus-galli); test: Test A postemergence, barnyardgrass; details: visual injury, 0 to 100 scale (0 no effect, 100 complete control), approximately 10 days
Summary of the method: (§1)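 Visual injury scores (0 no effect to 100 complete control) taken about 10 days after treatment, relative to untreated plants. Treatments were directed soil spray at planting for preemergence, or foliar application to one- to two-leaf plants (2-10 cm) for postemergence, with surfactant-containing formulations in loam–sand pots.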

kochia (Kochia scoparia) [2] = test: Test A postemergence, kochia; details: visual injury, 0 to 100 scale (0 no effect, 100 complete control), approximately 10 days
Summary of the method: as §1

[3] = system: ryegrass, Italian (Lolium multiflorum); test: Test A preemergence, Italian ryegrass; details: 0 to 100 scale (0 no effect, 100 complete control)
Summary of the method: as §1

[4] = system: ryegrass, Italian (Lolium multiflorum); test: Test A postemergence, Italian ryegrass; details: visual injury, 0 to 100 scale (0 no effect, 100 complete control), approximately 10 days
Summary of the method: as §1

[5] = system: foxtail, giant (Setaria faberii); test: Test A preemergence, giant foxtail; details: 0 to 100 scale (0 no effect, 100 complete control)
Summary of the method: as §1

[6] = system: sedge, umbrella (small-flower umbrella sedge, Cyperus difformis); test: Test B flooded paddy test, umbrella sedge; details: applied to paddy water, visual rating after 13 to 15 days, scale 0 (no effect) to 100 (complete control)
Summary of the method: (§2)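 Flooded 3 cm over soil; compound into paddy water; depth kept constant. Greenhouse 13–15 d.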

[7] = system: pigweed (Amaranthus retroflexus); test: Test A preemergence, pigweed; details: 0 to 100 scale (0 no effect, 100 complete control)
Summary of the method: as §1

kochia (Kochia scoparia) [8] = test: Test A preemergence, kochia; details: 0 to 100 scale (0 no effect, 100 complete control)
Summary of the method: as §1

[9] = system: ducksalad (Heteranthera limosa); test: Test B flooded paddy test, ducksalad; details: applied to paddy water, visual rating after 13 to 15 days, scale 0 (no effect) to 100 (complete control)
Summary of the method: as §2

[10] = system: barnyardgrass (Echinochloa crus-galli); test: Test A preemergence, barnyardgrass; details: 0 to 100 scale (0 no effect, 100 complete control)
Summary of the method: as §1

rice (Oryza sativa) = test: Test B flooded paddy test, rice; details: applied to paddy water, visual rating after 13 to 15 days, scale 0 (no effect) to 100 (complete control)
Summary of the method: as §2

corn (Zea mays) = test: Test A postemergence, corn; details: visual injury, 0 to 100 scale (0 no effect, 100 complete control), approximately 10 days
Summary of the method: as §1

[11] = system: barnyardgrass (Echinochloa crus-galli); test: Test B flooded paddy test, barnyardgrass; details: applied to paddy water, visual rating after 13 to 15 days, scale 0 (no effect) to 100 (complete control)
Summary of the method: as §2

[12] = system: galium (catchweed bedstraw, Galium aparine); test: Test A postemergence, galium; details: visual injury, 0 to 100 scale (0 no effect, 100 complete control), approximately 10 days
Summary of the method: as §1

[13] = system: pigweed (Amaranthus retroflexus); test: Test A postemergence, pigweed; details: visual injury, 0 to 100 scale (0 no effect, 100 complete control), approximately 10 days
Summary of the method: as §1

[14] = system: ragweed (common ragweed, Ambrosia elatior); test: Test A preemergence, ragweed; details: 0 to 100 scale (0 no effect, 100 complete control)
Summary of the method: as §1

[15] = system: blackgrass (Alopecurus myosuroides); test: Test A postemergence, blackgrass; details: visual injury, 0 to 100 scale (0 no effect, 100 complete control), approximately 10 days
Summary of the method: as §1

[16] = system: wheat (Triticum aestivum); test: Test A postemergence, wheat; details: visual injury, 0 to 100 scale (0 no effect, 100 complete control), approximately 10 days
Summary of the method: as §1

[17] = system: ragweed (common ragweed, Ambrosia elatior); test: Test A postemergence, ragweed; details: visual injury, 0 to 100 scale (0 no effect, 100 complete control), approximately 10 days
Summary of the method: as §1

[18] = system: foxtail, giant (Setaria faberii); test: Test A postemergence, giant foxtail; details: visual injury, 0 to 100 scale (0 no effect, 100 complete control), approximately 10 days
Summary of the method: as §1

| SMILES | Plant response rating, Barnyardgrass ([1]; 125 g ai/ha) | Plant response rating, Barnyardgrass ([1]; 500 g ai/ha) | Plant response rating, Kochia (kochia (Kochia scoparia) [2]; 125 g ai/ha) | Plant response rating, Kochia (kochia (Kochia scoparia) [2]; 500 g ai/ha) | Plant response rating, Ryegrass, Italian ([3]; 125 g ai/ha) | Plant response rating, Ryegrass, Italian ([3]; 500 g ai/ha) | Plant response rating, Ryegrass, Italian ([4]; 125 g ai/ha) | Plant response rating, Ryegrass, Italian ([4]; 500 g ai/ha) | Plant response rating, Foxtail, Giant ([5]; 125 g ai/ha) | Plant response rating, Foxtail, Giant ([5]; 500 g ai/ha) | Plant response rating, Pigweed ([7]; 125 g ai/ha) | Plant response rating, Pigweed ([7]; 500 g ai/ha) | Plant response rating, Kochia (kochia (Kochia scoparia) [8]; 125 g ai/ha) | Plant response rating, Barnyardgrass ([10]; 125 g ai/ha) | Plant response rating, Barnyardgrass ([10]; 500 g ai/ha) | Plant response rating, Corn (corn (Zea mays); 125 g ai/ha) | Plant response rating, Corn (corn (Zea mays); 500 g ai/ha) | Plant response rating, Galium ([12]; 125 g ai/ha) | Plant response rating, Galium ([12]; 500 g ai/ha) | Plant response rating, Pigweed ([13]; 125 g ai/ha) | other results |
| --- | --- | --- | --- | --- | --- | --- | --- | --- | --- | --- | --- | --- | --- | --- | --- | --- | --- | --- | --- | --- | --- |
| O=C1NCC(c2cccc(OCC3OCCO3)c2)C1C(=O)Nc1cccc(F)c1F (centres unmarked) [Compound 7] | 40 | 70 | 0 | 0 | 30 | 30 | 0 | 20 | 90 | 90 | 60 | 60 | 0 | 60 | 90 | 0 | 20 | 20 | 40 | 0 | Plant response rating, Sedge, Umbrella (Flood) ([6]; 250 g ai/ha): 0; Plant response rating, Kochia (kochia (Kochia scoparia) [8]; 500 g ai/ha): 0; Plant response rating, Ducksalad (Flood) ([9]; 250 g ai/ha): 75; Plant response rating, Rice (Flood) (rice (Oryza sativa); 250 g ai/ha): 0; Plant response rating, Barnyardgrass (Flood) ([11]; 250 g ai/ha): 0; Plant response rating, Pigweed ([13]; 500 g ai/ha): 0; Plant response rating, Ragweed ([14]; 125 g ai/ha): 0; Plant response rating, Ragweed ([14]; 500 g ai/ha): 0; Plant response rating, Blackgrass ([15]; 125 g ai/ha): 0; Plant response rating, Blackgrass ([15]; 500 g ai/ha): 40; Plant response rating, Wheat ([16]; 125 g ai/ha): 0; Plant response rating, Wheat ([16]; 500 g ai/ha): 40; Plant response rating, Ragweed ([17]; 125 g ai/ha): 0; Plant response rating, Ragweed ([17]; 500 g ai/ha): 20; Plant response rating, Foxtail, Giant ([18]; 125 g ai/ha): 20; Plant response rating, Foxtail, Giant ([18]; 500 g ai/ha): 70 |
| O=C1NCC(c2cccc(Oc3ccccn3)c2)C1C(=O)Nc1cccc(F)c1F (centres unmarked) [Compound 68] | 10 | 40 | 0 | 0 | 0 | 0 | 0 | 0 | 60 | 90 | 0 | 0 | 0 | 20 | 50 | 0 | 0 | 0 | 0 | 0 | Plant response rating, Sedge, Umbrella (Flood) ([6]; 500 g ai/ha): 0; Plant response rating, Kochia (kochia (Kochia scoparia) [8]; 500 g ai/ha): 0; Plant response rating, Ducksalad (Flood) ([9]; 500 g ai/ha): 80; Plant response rating, Rice (Flood) (rice (Oryza sativa); 500 g ai/ha): 0; Plant response rating, Barnyardgrass (Flood) ([11]; 500 g ai/ha): 20; Plant response rating, Pigweed ([13]; 500 g ai/ha): 0; Plant response rating, Ragweed ([14]; 125 g ai/ha): 0; Plant response rating, Ragweed ([14]; 500 g ai/ha): 0; Plant response rating, Blackgrass ([15]; 125 g ai/ha): 0; Plant response rating, Blackgrass ([15]; 500 g ai/ha): 20; Plant response rating, Wheat ([16]; 125 g ai/ha): 0; Plant response rating, Wheat ([16]; 500 g ai/ha): 0; Plant response rating, Ragweed ([17]; 125 g ai/ha): 0; Plant response rating, Ragweed ([17]; 500 g ai/ha): 0; Plant response rating, Foxtail, Giant ([18]; 125 g ai/ha): 0; Plant response rating, Foxtail, Giant ([18]; 500 g ai/ha): 60 |
| O=C1NCC(c2ccccc2Cn2ccc(C(F)(F)F)n2)C1C(=O)Nc1ccc(F)c(F)c1F (centres unmarked) [Compound 58] | 0 | 60 | 0 | 20 | 0 | 20 | 0 | 0 | 60 | 90 | 0 | 0 | 0 | 30 | 90 | 0 | 0 | 0 | 20 | 0 | Plant response rating, Sedge, Umbrella (Flood) ([6]; 250 g ai/ha): 0; Plant response rating, Ducksalad (Flood) ([9]; 250 g ai/ha): 0; Plant response rating, Rice (Flood) (rice (Oryza sativa); 250 g ai/ha): 0; Plant response rating, Barnyardgrass (Flood) ([11]; 250 g ai/ha): 0; Plant response rating, Pigweed ([13]; 500 g ai/ha): 0; Plant response rating, Ragweed ([14]; 125 g ai/ha): 0; Plant response rating, Ragweed ([14]; 500 g ai/ha): 0; Plant response rating, Blackgrass ([15]; 125 g ai/ha): 0; Plant response rating, Blackgrass ([15]; 500 g ai/ha): 0; Plant response rating, Wheat ([16]; 125 g ai/ha): 0; Plant response rating, Wheat ([16]; 500 g ai/ha): 0; Plant response rating, Ragweed ([17]; 125 g ai/ha): 0; Plant response rating, Ragweed ([17]; 500 g ai/ha): 0; Plant response rating, Foxtail, Giant ([18]; 125 g ai/ha): 30; Plant response rating, Foxtail, Giant ([18]; 500 g ai/ha): 60 |
| CN1CC(c2cccc(OC(F)(F)C(F)OC(F)(F)F)c2)C(C(=O)Nc2cccc(F)c2F)C1=O (centres unmarked) [Compound 48] | 20 | 50 | 30 | 70 | 30 | 30 | 0 | 40 | 80 | 90 | 70 | 70 | 0 | 80 | 90 | 0 | 40 | 60 | 60 | 60 | Plant response rating, Sedge, Umbrella (Flood) ([6]; 250 g ai/ha): 0; Plant response rating, Kochia (kochia (Kochia scoparia) [8]; 500 g ai/ha): 20; Plant response rating, Ducksalad (Flood) ([9]; 250 g ai/ha): 80; Plant response rating, Rice (Flood) (rice (Oryza sativa); 250 g ai/ha): 0; Plant response rating, Barnyardgrass (Flood) ([11]; 250 g ai/ha): 0; Plant response rating, Pigweed ([13]; 500 g ai/ha): 90; Plant response rating, Ragweed ([14]; 125 g ai/ha): 0; Plant response rating, Ragweed ([14]; 500 g ai/ha): 0; Plant response rating, Blackgrass ([15]; 125 g ai/ha): 0; Plant response rating, Blackgrass ([15]; 500 g ai/ha): 0; Plant response rating, Wheat ([16]; 125 g ai/ha): 0; Plant response rating, Wheat ([16]; 500 g ai/ha): 30; Plant response rating, Ragweed ([17]; 125 g ai/ha): 0; Plant response rating, Ragweed ([17]; 500 g ai/ha): 0; Plant response rating, Foxtail, Giant ([18]; 125 g ai/ha): 60; Plant response rating, Foxtail, Giant ([18]; 500 g ai/ha): 80 |
